Data as given in patent publication US20240190872A1, “FABI INHIBITORS FOR GRAM-NEGATIVE PATHOGENS” (THE BOARD OF TRUSTEES OF THE UNIVERSITY OF ILLINOIS, priority 2021, published 2024).
Values after ≈ are worked out from the molar mass of the structure shown.

How the values were obtained:
[1] = tested on: IMR90; experiment: Toxicity screen against mammalian cell lines (72 h), Alamar Blue; format: cell-based
Protocol: Cell culture. IMR90 cells were obtained from ATCC. IMR90 cells were grown in EMEM with 10% fetal bovine serum (Gemini Benchmark, Cat# 100-106), 100 U/mL penicillin, and 100 μg/mL streptomycin. All cells were cultured at 37° C. in a 5% CO2 environment. Media was prepared by the Univeristy of Illinois School of Chemical Sciences Cell Media Facility. Sex and age of cell lines: IMR90 ([…]).
Cell viability. Cells seeded (IMR90: 5,000 cells/well) a 96-well plate (Greiner Bio-One, Cat# 655180) and were allowed to attach overnight. […] Raptinal (100 μM) was used as a dead control. After 24 h post-treatment, media was exchanged with compound-free media. […] Stock Alamar Blue solution [10 μL, 440 μM resazurin (Sigma-Aldrich, Cat# R7017) in sterile 1×PBS] was added to each well, and plate was incubated […]. Conversion of Alamar Blue was measured with plate reader (SpectraMax M3, Molecular Devices) by fluorescence (ex 555 nm, em 585 nm, cutoff 570 nm, autogain). Percent death was determined by normalizing to DMSO-treated cells and raptinal-treated cells.

[2] = tested on: Hep G2; experiment: Toxicity screen against mammalian cell lines (72 h); format: cell-based
[3] = tested on: E. coli ΔtolC (JW5503); format: cell-based; conditions: efflux deficient E. coli ΔtolC
Protocol: (§1) The compounds synthesized, shown in Table 1, were evaluated against Gram-positive and Gram-negative reference strains (S. aureus 29213 and E. coli MG1655, respectively), as well as an efflux deficient E. coli strain (ΔtolC, JW5503).
(§2) Bacterial strains. S. aureus ATCC 29213, E. coli MG1655, E. coli BAA-2340, E. coli BAA-2469, E. coli BAA-2471, E. cloacae BAA-2341, E. cloacae BAA-2468, K. pneumoniae BAA-1705, K. pneumoniae BAA-2342, K. pneumoniae BAA-2470, K. pneumoniae BAA-2472, and K. pneumoniae BAA-2473 were obtained from ATCC. E. coli JW5503 and E. coli JW3596 were obtained from the KEIO Collection. E. cloacae ATCC 29893 was provided by W. van der Donk (UIUC). E. coli AR-0346, E. coli AR-0349, E. coli AR-0493, E. coli AR-0495, and K. pneumoniae AR-0347 were obtained from the CDC and FDA AR Isolate Bank. E. coli F20987, E. coli M66623, E. cloacae S28901.1, K. pneumoniae M14723, K. pneumoniae M67198, K. pneumoniae M67297, K. pneumoniae S20595, K. pneumoniae S47889, A. baumannii W41979, A. baumannii F19521, A. baumannii M13100, and A. baumannii WO22 were obtained from the University of Illinois Chicago Medical School. A. baumannii KB304, A. baumannii KB343, and A. baumannii KB357 were provided by J. Quale.
(§3) Antimicrobial susceptibility tests. Susceptibility testing was performed in biological triplicate, using the micro-dilution broth method as outlined by the Clinical and Laboratory Standards Institute. Bacteria were cultured with cation-adjusted Muller-Hinton broth (Sigma-Aldrich, Cat# 90922) in round-bottom 96-well plates (Corning, Cat# 3788). Human serum (pooled gender, 0.2 μm filtered) was purchased from BioIVT (Hicksville, NY).

[4] = tested on: A. baumannii AR 0299; experiment: microbe, parasite or virus in culture; format: cell-based; conditions: clinical isolate
Protocol: as §3

[5] = tested on: A. baumannii AR 0033; experiment: microbe, parasite or virus in culture; format: cell-based; conditions: clinical isolate
Protocol: as §3

[6] = tested on: A. baumannii AR 0273; experiment: microbe, parasite or virus in culture; format: cell-based; conditions: clinical isolate
Protocol: as §3

[7] = tested on: E. coli AR 0085; experiment: microbe, parasite or virus in culture; format: cell-based; conditions: clinical isolate
Protocol: as §3

[8] = tested on: K. pneumoniae AR 0560; experiment: microbe, parasite or virus in culture; format: cell-based; conditions: clinical isolate
Protocol: as §3

[9] = tested on: K. pneumoniae AR 0066; experiment: microbe, parasite or virus in culture; format: cell-based; conditions: clinical isolate
Protocol: as §3

[10] = tested on: E. coli AR 0048; experiment: microbe, parasite or virus in culture; format: cell-based; conditions: clinical isolate
Protocol: as §3

[11] = tested on: A. baumannii AR 0313; experiment: microbe, parasite or virus in culture; format: cell-based; conditions: clinical isolate
Protocol: as §3

[12] = tested on: K. pneumoniae AR 0113; experiment: microbe, parasite or virus in culture; format: cell-based; conditions: clinical isolate
Protocol: as §3

[13] = tested on: K. pneumoniae BAA 2472; experiment: microbe, parasite or virus in culture; format: cell-based; conditions: clinical isolate
Protocol: as §1, §2, §3

[14] = tested on: S. aureus ATCC 29213; experiment: Antimicrobial susceptibility test (MIC), micro-dilution broth; format: cell-based; conditions: S. aureus ATCC 29213
Description: as §2, §3

[15] = tested on: E. coli MG1655; experiment: Antimicrobial susceptibility test (MIC); format: cell-based; conditions: E. coli MG1655
Description: as §2, §3

[16] = in vivo; conditions: female, C57BL/6, mouse, in vivo, ip
Protocol: Mouse MTD of Debio-1452-NH3. The protocol was approved by the IACUC at the University of Illinois at Urbana-Champaign (Protocol Number:16144). In these studies, 10- to 12-week-old female C57BL/6 mice purchased from Charles River were used. The maximum tolerate dose (MTD) of single compound was determined first. Debio-1452 amine analogues were formulated in 20% sulfobutyl ether β-cyclodextrin in sterile water. Debio-1452-NH3 (1), and compounds 2 and 3 were given by IP injection and mice were monitored for signs of toxicity for 2 weeks (single dose). For multiple dose, the compound was given by daily IP for 5 consecutive days and mice were monitored for signs of toxicity for 1 month. MTD was the highest dosage with acceptable toxicity (e.g. <20% weight loss). Single dose MTDs were initially determined. […] The MTD of Debio-1452-NH3 (1) was used to inform the dosing schedule used in subsequent efficacy studies.

[17] = target: A. baumannii FabI (Acinetobacter baumannii, UniProt D0CAD5); experiment: biochemical; conditions: purified FabI, apparent inhibition constant; read-out: A. baumannii FabI Ki^app
Protocol: Mode of Action. To probe the effects of varying ring systems and amine placement on FabI target engagement, the apparent inhibition constants (Ki^app) for select compounds were determined using purified FabI. The goal of these studies was two-fold, to comparatively assess fabimycin, Debio-1452-NH3, and Debio-1452, and to also assess differential activity against the E. coli and A. baumannii versions of FabI. FabI from E. coli and A. baumannii were recombinantly expressed and purified, and the ability for each compound to inhibit the activity of these enzymes was evaluated using a standard FabI enzyme assay.
In vitro FabI inhibition assay. NADH (Sigma-Aldrich, Cat# N8129) and crotonoyl-CoA (Sigma-Aldrich, Cat# 28007) were both diluted into activity buffer [100 mM potassium glutamate (pH 7.8)], and working solution was dispensed into two columns of round-bottom 96-well plate (330 μL per well). Inhibitors, dissolved in DMSO at 200× final concentration, were added to each well via multichannel pipette (2.48 μL per well). After thorough mixing, this mixture was transferred to UV-transparent plate (UV-STAR half-area 96-well plate, Greiner Bio-One, Cat#675801, 100 μL per well, three technical replicates per inhibitor concentration). Plate was placed in plate-reader (SpectraMax 190, Molecular Devices) under temperature control (25° C.), and temperature was allowed to equilibrate. Fresh aliquot of enzyme from −80° C. was thawed on ice and diluted in activity buffer. Enzyme working solution was added to plate (50 μL per well, 20 nM enzyme final). After shaking for 5 s, reaction progress was monitored by absorbance at 340 nm every 15 s for 90 min. Linear portion of reaction progress curve was fit using plate-reader software (SoftMax Pro 7.0). Percent activity was calculated relative to DMSO-only and no-enzyme controls in each plate. Percent activity curves were fit to Morrison's quadratic using Graphpad Prism 6.0 to obtain apparent Ki.

Sequence of A. baumannii FabI (D0CAD5 1-288): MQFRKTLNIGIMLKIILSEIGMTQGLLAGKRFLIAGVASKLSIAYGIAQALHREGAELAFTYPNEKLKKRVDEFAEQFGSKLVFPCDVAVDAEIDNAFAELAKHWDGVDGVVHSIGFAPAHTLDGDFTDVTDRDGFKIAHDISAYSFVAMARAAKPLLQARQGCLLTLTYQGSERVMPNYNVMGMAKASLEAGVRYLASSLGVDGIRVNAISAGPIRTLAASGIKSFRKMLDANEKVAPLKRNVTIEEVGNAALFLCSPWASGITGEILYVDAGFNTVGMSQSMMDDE

Compound	IMR90 % Cell Death ([1]; 30 μM) [%]	IMR90 % Cell Death ([1]; 100 μM) [%]	Hep G2 % Cell Death ([2]; 30 μM) [%]	Hep G2 % Cell Death ([2]; 100 μM) [%]	MIC E. coli ΔtolC [3] [µg/mL]	MIC A. baumannii AR 0299 [4] [µg/mL]	MIC A. baumannii AR 0033 [5] [µg/mL]	MIC A. baumannii AR 0273 [6] [µg/mL]	MIC E. coli AR 0085 [7] [µg/mL]	MIC K. pneumoniae AR 0560 [8] [µg/mL]	MIC K. pneumoniae AR 0066 [9] [µg/mL]	MIC E. coli AR 0048 [10] [µg/mL]	MIC A. baumannii AR 0313 [11] [µg/mL]	MIC K. pneumoniae AR 0113 [12] [µg/mL]	MIC K. pneumoniae BAA 2472 [13] [µg/mL]	MIC S. aureus 29213 [14] [µg/mL]	MIC E. coli MG1655 [15] [µg/mL]	MTD at 2 weeks [16] [mg/kg]	Ki [17] [nM]
Cc1c(CN(C)C(=O)/C=C/c2ccc3c(c2)CCC(N)C(=O)N3)oc2ccccc12 (centres unmarked)	8 ± 3	67 ± 2	12 ± 5	58 ± 10															
Cc1c(CN(C)C(=O)C=Cc2cnc3c(c2)CC2(CC(N)C2)C(=O)N3)oc2ccccc12 (mixture of isomers) [(±)-6]					0.062	16	16	16	16	8	8	16	32	16	8	0.016	4		
Cc1c(CN(C)C(=O)/C=C/c2cnc3c(c2)CCC(CN)C(=O)N3)oc2ccccc12 (racemic) [(±)-12]					0.125 (≈ 0.299 µM)	32 (≈ 76.5 µM)	16 (≈ 38.2 µM)	32 (≈ 76.5 µM)	8 (≈ 19.1 µM)	16 (≈ 38.2 µM)	32 (≈ 76.5 µM)	16 (≈ 38.2 µM)	>32	32 (≈ 76.5 µM)	32 (≈ 76.5 µM)	0.031 (≈ 0.0741 µM)	8 (≈ 19.1 µM)		
Cc1c(CN(C)C(=O)/C=C/c2cnc3c(c2)CC(CCN)C(=O)N3)oc2ccccc12.Cl (centres unmarked) [Compound 3, (E)-3-(6-(aminoethyl)-7-oxo-5,6,7,8-tetrahydro-1,8-naphthyridin-3-yl)-N-methyl-N-((3-methylbenzofuran-2-yl)methyl)acrylamide hydrochloride]																		100	
Cc1c(CN(C)C(=O)/C=C/c2cnc3c(c2)CC2(CNC2)C(=O)N3)oc2ccccc12 [Compound 5]					0.031 (≈ 0.0744 µM)	16 (≈ 38.4 µM)	8 (≈ 19.2 µM)	8 (≈ 19.2 µM)	4 (≈ 9.6 µM)	16 (≈ 38.4 µM)	8 (≈ 19.2 µM)	8 (≈ 19.2 µM)	16 (≈ 38.4 µM)	16 (≈ 38.4 µM)	8 (≈ 19.2 µM)	0.016 (≈ 0.0384 µM)	4 (≈ 9.6 µM)		
Cc1c(CN(C)C(=O)/C=C/c2cnc3c(c2)CC(CCNC(=O)OC(C)(C)C)C(=O)N3)oc2ccccc12 (centres unmarked) [Compound 10]					0.031 (≈ 0.0598 µM)	8 (≈ 15.4 µM)	16 (≈ 30.9 µM)	8 (≈ 15.4 µM)	8 (≈ 15.4 µM)	>32	32 (≈ 61.7 µM)	8 (≈ 15.4 µM)	16 (≈ 30.9 µM)	32 (≈ 61.7 µM)	16 (≈ 30.9 µM)	0.002 (≈ 0.00386 µM)	8 (≈ 15.4 µM)		
(R,E)-3-(7-amino-8-oxo-6,7,8,9-tetrahydro-5H-pyrido[2,3]azepin-3-yl)-N-methyl-N-((3-methylbenzofuran-2-yl)methyl)acrylamide [(R)-11]					0.5	>128	>128	>128	128	>128	>128	128	>128	>128	>128	0.125	64		89 ± 11
